The values that follow come from BindingDB's records for doi:10.1016/S0960-894X(96)00609-9 (1997).

One may read the IC50 as the midpoint of a concentration-inhibition curve. Read a high IC50 as weaker potency in that assay.

The structures appear in SMILES notation.

For the first test, the target named is Gastrin/cholecystokinin type B receptor (Cavia porcellus). Briefly: Inhibition of [125I]Cholecystokinin-8 binding to Cholecystokinin type B receptor of guinea pig cerebral cortical membranes.
`COc1cccc(NC(=O)NC2N=C(c3ccccc3F)c3cccc(C)c3N(CC(=O)N3CC4CCC(CC4)C3)C2=O)c1` (centres undefined) [1-[1-[2-(3-Aza-bicyclo[3.2.2]non-3-yl)-2-oxo-ethyl]-5-(2-fluoro-phenyl)-9-methyl-2-oxo-2,3-dihydro-1H-benzo[e][1,4]diazepin-3-yl]-3-(3-methoxy-phenyl)-urea] yielded an IC50 of 1 nM.

With `CC(=O)c1cccc(NC(=O)NC2N=C(c3ccccc3F)c3cccc(C)c3N(CC(=O)N3CC4CCC(CC4)C3)C2=O)c1` (centres undefined) [1-(3-Acetyl-phenyl)-3-[1-[2-(3-aza-bicyclo[3.2.2]non-3-yl)-2-oxo-ethyl]-5-(2-fluoro-phenyl)-9-methyl-2-oxo-2,3-dihydro-1H-benzo[e][1,4]diazepin-3-yl]-urea], the IC50 stood at 0.84 nM.

As to `CSc1cccc(NC(=O)NC2N=C(c3ccccc3F)c3cccc(C)c3N(CC(=O)N3CC4CCC(CC4)C3)C2=O)c1` (centres undefined) [1-[1-[2-(3-Aza-bicyclo[3.2.2]non-3-yl)-2-oxo-ethyl]-5-(2-fluoro-phenyl)-9-methyl-2-oxo-2,3-dihydro-1H-benzo[e][1,4]diazepin-3-yl]-3-(3-methylsulfanyl-phenyl)-urea], the IC50 turned out to be 0.37 nM.

The molecule `Cc1cccc2c1N(CC(=O)N1CC3CCC(CC3)C1)C(=O)C(NC(=O)Nc1cccc(Br)c1)N=C2c1ccccc1F` (centres undefined) [1-[1-[2-(3-Aza-bicyclo[3.2.2]non-3-yl)-2-oxo-ethyl]-5-(2-fluoro-phenyl)-9-methyl-2-oxo-2,3-dihydro-1H-benzo[e][1,4]diazepin-3-yl]-3-(3-bromo-phenyl)-urea] registered an IC50 of 1.8 nM.

As for `Cc1cccc2c1N(CC(=O)N1CC3CCC(CC3)C1)C(=O)C(NC(=O)Nc1cccc(Cl)c1)N=C2c1ccccc1F` (centres undefined) [1-[1-[2-(3-Aza-bicyclo[3.2.2]non-3-yl)-2-oxo-ethyl]-5-(2-fluoro-phenyl)-9-methyl-2-oxo-2,3-dihydro-1H-benzo[e][1,4]diazepin-3-yl]-3-(3-chloro-phenyl)-urea], the IC50 was found to be 2 nM.

In the case of `Cc1cccc(NC(=O)NC2N=C(c3ccccc3F)c3cccc(C)c3N(CC(=O)N3CC4CCC(CC4)C3)C2=O)c1` (centres undefined) [1-[1-[2-(3-Aza-bicyclo[3.2.2]non-3-yl)-2-oxo-ethyl]-5-(2-fluoro-phenyl)-9-methyl-2-oxo-2,3-dihydro-1H-benzo[e][1,4]diazepin-3-yl]-3-m-tolyl-urea], the IC50 stood at 0.47 nM.

Turning to `Cc1cccc2c1N(CC(=O)N1CC3CCC(CC3)C1)C(=O)C(NC(=O)Nc1cccc(C(=O)O)c1)N=C2c1ccccc1F` (centres undefined) [3-{3-[1-[2-(3-Aza-bicyclo[3.2.2]non-3-yl)-2-oxo-ethyl]-5-(2-fluoro-phenyl)-9-methyl-2-oxo-2,3-dihydro-1H-benzo[e][1,4]diazepin-3-yl]-ureido}-benzoic acid], the IC50 turned out to be 0.96 nM.

As to `Cc1cccc(NC(=O)NC2N=C(c3ccccc3F)c3ccccc3N(CC(=O)N3CC4CCC(CC4)C3)C2=O)c1` (centres undefined) [FR-175985], the IC50 was 0.087 nM.

Target in another test: not listed separately
Briefly: Inhibition of [125I]-Cholecystokinin-8 (125I-CCK-8) binding to Cholecystokinin type B receptor of guinea pig cerebral cortical membranes.
Molecule `Cc1cccc2c1N(CC(=O)N1CC3CCC(CC3)C1)C(=O)C(NC(=O)Nc1cccc(-c3nnn[nH]3)c1)N=C2c1ccccc1F` (centres undefined) [1-[1-[2-(3-Aza-bicyclo[3.2.2]non-3-yl)-2-oxo-ethyl]-5-(2-fluoro-phenyl)-9-methyl-2-oxo-2,3-dihydro-1H-benzo[e][1,4]diazepin-3-yl]-3-[3-(1H-tetrazol-5-yl)-phenyl]-urea] showed an IC50 of 6.4 nM.
